Assay results: ChEMBL document CHEMBL3286254, “Structure-guided discovery of 1,3,5 tri-substituted benzenes as potent and selective matriptase inhibitors exhibiting in vivo antitumor efficacy” (Bioorg Med Chem, 2014)

Legend:
Trypsin = Trypsin (Homo sapiens, UniProt P07477+P07478+P35030); assay: Inhibition of human pancreas Trypsin using Boc-Gln-Ala-Arg-7-amido-4-methyl coumarin hydrobromide; format: protein assay
[1] = target: T1, Suppressor of tumorigenicity 14 protein (Homo sapiens, UniProt Q9Y5Y6); assay: Inhibition of recombinant matriptase (unknown origin) using Boc-Gln-Ala-Arg-7-amido-4-methyl coumarin hydrobromide
T1 sequence (Q9Y5Y6 whole entry): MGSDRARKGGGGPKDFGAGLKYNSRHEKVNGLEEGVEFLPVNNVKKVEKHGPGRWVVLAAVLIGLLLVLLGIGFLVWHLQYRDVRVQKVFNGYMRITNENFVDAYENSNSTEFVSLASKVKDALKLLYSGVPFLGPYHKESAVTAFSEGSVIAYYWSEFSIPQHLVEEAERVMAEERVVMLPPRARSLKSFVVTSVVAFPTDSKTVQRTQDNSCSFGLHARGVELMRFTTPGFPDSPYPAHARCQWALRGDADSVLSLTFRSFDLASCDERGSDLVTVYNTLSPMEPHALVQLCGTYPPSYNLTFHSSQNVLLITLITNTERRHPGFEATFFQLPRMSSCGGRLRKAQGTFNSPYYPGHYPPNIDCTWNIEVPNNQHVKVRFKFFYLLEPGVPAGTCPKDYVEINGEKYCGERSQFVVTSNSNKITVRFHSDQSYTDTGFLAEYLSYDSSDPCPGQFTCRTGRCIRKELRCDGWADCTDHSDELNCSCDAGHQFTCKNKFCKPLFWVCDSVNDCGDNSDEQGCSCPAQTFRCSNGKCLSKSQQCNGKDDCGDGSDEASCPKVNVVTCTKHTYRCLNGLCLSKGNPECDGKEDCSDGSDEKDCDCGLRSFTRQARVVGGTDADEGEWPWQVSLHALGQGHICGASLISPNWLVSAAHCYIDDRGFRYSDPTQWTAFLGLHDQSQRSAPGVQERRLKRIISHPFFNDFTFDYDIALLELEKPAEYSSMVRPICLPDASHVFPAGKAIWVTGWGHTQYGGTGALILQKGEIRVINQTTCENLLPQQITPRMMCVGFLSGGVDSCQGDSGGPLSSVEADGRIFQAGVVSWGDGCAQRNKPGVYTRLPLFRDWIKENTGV

Coagulation factor X = Coagulation factor X (Bos taurus, UniProt P00743); assay: Inhibition of bovine plasma factor 10a using CH3OCO-D-CHA-Gly-Arg-pNA.AcoH substrate
Prothrombin = Prothrombin (Homo sapiens, UniProt P00734); assay: Inhibition of human thrombin using Boc-Gln-Ala-Arg-7-amido-4-methyl coumarin hydrobromide

Chain of Coagulation factor X (P00743 41-180 limits assumed): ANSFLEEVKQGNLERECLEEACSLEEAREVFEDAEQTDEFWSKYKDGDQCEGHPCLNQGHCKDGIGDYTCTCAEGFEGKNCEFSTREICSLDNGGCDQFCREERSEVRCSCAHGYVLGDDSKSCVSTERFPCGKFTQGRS
Chain of Coagulation factor X (P00743 234-492 limits assumed): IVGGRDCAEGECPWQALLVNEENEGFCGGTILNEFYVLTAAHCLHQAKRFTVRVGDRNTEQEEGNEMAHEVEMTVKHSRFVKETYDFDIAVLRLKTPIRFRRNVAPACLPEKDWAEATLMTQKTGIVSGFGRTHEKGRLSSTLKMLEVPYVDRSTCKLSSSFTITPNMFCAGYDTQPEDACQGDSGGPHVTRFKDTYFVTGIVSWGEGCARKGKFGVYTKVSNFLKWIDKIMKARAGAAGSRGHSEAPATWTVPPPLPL

Row | Ki (Trypsin) | Ki [1] | Ki (Coagulation factor X) | Ki (Prothrombin) | Compound
1 | > 3000 nM | 793 nM | 3680 nM | 3980 nM | N=C(N)c1ccc(Oc2cc(OCc3ccc(Br)nc3)cc(C(=O)N[C@H]3CC[C@H](N)CC3)c2)cc1
2 | 1550 nM | 1180 nM | 920 nM | 2850 nM | N=C(N)c1ccc(Oc2cc(Oc3ccc(C(=N)N)cc3)cc(C(=O)NCC3CCC(O)CC3)c2)cc1 (centres undefined)
3 | 1541 nM | 6 nM | 1140 nM | 2680 nM | N=C(N)c1ccc(Oc2cc(OCc3cccc(C(=N)N)c3)cc(C(=O)N[C@H]3CC[C@H](N)CC3)c2)cc1
4 | 1388 nM | 1980 nM | 1160 nM | 4850 nM | N=C(N)c1ccc(Oc2cc(NS(=O)(=O)c3ccc(F)cc3)cc(Oc3ccc(C(=N)N)cc3)c2)cc1
5 | 640 nM | 1620 nM | 785 nM | 1060 nM | N=C(N)c1ccc(Oc2cc(Oc3ccc(C(=N)N)cc3)cc(C(N)=O)c2)cc1
6 |  | 470 nM |  |  | N=C(N)c1ccc(Oc2cc(OCc3ccc(Cl)cc3)cc(C(=O)N[C@H]3CC[C@H](N)CC3)c2)cc1
7 | > 3000 nM | 1130 nM |  |  | N=C(N)c1ccc(Oc2cc(Oc3ccc(N)cc3)cc(C(=O)N[C@H]3CC[C@H](N)CC3)c2)cc1
8 |  | 301 nM | 538 nM | 1240 nM | N=C(N)c1ccc(Oc2cc(Oc3ccc(C(=N)N)cc3)cc(C(=O)NC3CCC(O)CC3)c2)cc1 (centres undefined)
9 | 1868 nM | 10 nM |  | 2810 nM | N=C(N)c1ccc(COc2cc(Oc3ccc(C(=N)N)cc3)cc(C(=O)N[C@H]3CC[C@H](N)CC3)c2)cc1
10 | 3850 nM | 1700 nM |  |  | NCc1ccc(Oc2cc(Oc3ccc(CN)cc3)cc(C(=O)N[C@H]3CC[C@H](N)CC3)c2)cc1
11 | 1035 nM | 141 nM | 415 nM | 1280 nM | N=C(N)c1ccc(Oc2cc(Oc3ccc(C(=N)N)cc3)cc(C(=O)NC3CCN(CCCN)CC3)c2)cc1
12 | > 3000 nM | 824 nM |  | 3540 nM | N=C(N)c1ccc(Oc2cc(Oc3ccc(C(N)=O)cc3)cc(C(=O)N[C@H]3CC[C@H](N)CC3)c2)cc1
13 | 3000 nM | 1790 nM | 876 nM |  | N=C(N)c1ccc(Oc2cc(NS(=O)(=O)c3ccc4ccccc4c3)cc(Oc3ccc(C(=N)N)cc3)c2)cc1
14 | 718 nM |  |  |  | N=C(N)c1ccc(Oc2cc(Oc3ccc(C(=N)N)cc3)cc(C(=O)N3CCC(C(=O)O)CC3)c2)cc1
15 | 1468 nM | 18 nM | 1160 nM | 4200 nM | N=C(N)c1ccc(Oc2cc(NC(=O)C3CCN(CCO)CC3)cc(Oc3ccc(C(=N)N)cc3)c2)cc1
16 | > 3000 nM | 116 nM | 3580 nM | 3250 nM | N=C(N)c1ccc(Oc2cc(Oc3ccc(NC(=O)CCN)cc3)cc(C(=O)N[C@H]3CC[C@H](N)CC3)c2)cc1
17 | 901 nM | 3 nM | 157 nM | 1290 nM | N=C(N)c1cccc(COc2cc(OCc3cccc(C(=N)N)c3)cc(C(=O)N[C@H]3CC[C@H](N)CC3)c2)c1
18 |  | 204 nM | 640 nM | 1780 nM | N=C(N)c1ccc(Oc2cc(Oc3ccc(C(=N)N)cc3)cc(C(=O)NC3CCN(CCO)CC3)c2)cc1
19 |  | 200 nM |  |  | N=C(N)c1ccc(Oc2ccc(Oc3ccc(C(=N)N)cc3)cc2)cc1
20 | > 3000 nM | 2030 nM |  |  | N=C(N)c1ccc(Oc2cc(Oc3ccc(N)nc3)cc(C(=O)N[C@H]3CC[C@H](N)CC3)c2)cc1
21 | 534 nM | 1060 nM | 851 nM | 2820 nM | N=C(N)c1ccc(Oc2cc(N)cc(Oc3ccc(C(=N)N)cc3)c2)cc1
22 | 1022 nM | 23 nM | 1560 nM | 1640 nM | N=C(N)c1ccc(COc2cc(OCc3ccc(C(=N)N)cc3)cc(C(=O)N[C@H]3CC[C@H](N)CC3)c2)cc1
23 |  | 0.08 nM |  |  | N=C(N)c1cccc(C[C@@H](NS(=O)(=O)c2cccc(C3CCC(N)=NC3)c2)C(=O)N2CCC(CCN)CC2)c1 (some centres undefined)
